From ChEMBL document CHEMBL4425152, “New P2X3 receptor antagonists. Part 1: Discovery and optimization of tricyclic compounds” (Bioorg Med Chem Lett, 2016)

Experiment: in vitro
Conditions: human, Caco-2

| Papp | SMILES |
| --- | --- |
| 46.8 ×10⁻⁶ cm/s | COc1ccc(OC)c(CCn2cnc3sc4c(c3c2=O)CCC(C(=O)N(C)C)C4)c1 (stereo not drawn) |
| 0.7 ×10⁻⁶ cm/s | COc1cc(C(C)C)c(Oc2cnc(N)nc2N)cc1S(N)(=O)=O [GEFAPIXANT] |
| 30.6 ×10⁻⁶ cm/s | COc1cc(C(C)C)c(Oc2cnc(N)nc2N)cc1I |
